Structures can show the parent of a compound that is named as a salt.
Experiments:
urinary incontinence = experiment: Treatment of a group of cats and dogs presenting urinary incontinence; type: in vivo; conditions: admixture of 5 mg/day imipramine hydrochloride and 100 mg stool softener (or by weight), oral, after several days; group of twenty cats and dogs
Source text: A group of twenty mammals, including female and male cats and dogs, present with urinary incontinence.

[1] = Side effects reported by treated patients
Method: The patient is treated with a total daily dose of medicine, which includes an admixture of 25 mg of imipramine hydrochloride and 275 mg of stool softener (docusate sodium). […] A selective beta-blocker is administered in response to tachycardia on an as-needed basis.

[2] = system: urinary incontinence and/or urinary urgency; experiment: Treatment of patients presenting urinary incontinence and/or urinary urgency (case examples)
Method: The patient stops taking the daily dosages.
The complaints include urinary incontinence and/or urinary urgency (awake and sleeping).
The patient is treated with a total daily dose of medicine, which includes 50 mg of tricyclic antidepressant (imipramine hydrochloride) and 300 mg of stool softener (docusate sodium).
The complaints include chronic urinary incontinence and/or urinary urgency.
The patient is treated with a total daily dose of medicine, which includes 50 mg of imipramine hydrochloride and 350 mg of stool softener (docusate sodium), ingested separately.
The complaints include chronic, intermittent urinary incontinence and urinary urgency.
The patient is treated with a total daily dose of medicine, which includes an admixture of 25 mg of imipramine hydrochloride and 275 mg of stool softener (docusate sodium).

Row | Structure (SMILES) | reduction or elimination of urinary incontinence (urinary incontinence) | adverse side effects ([1]; 75 mg/day imipramine hydrochloride (25 mg/3 times daily) and a stool softener, oral) | adverse side effects ([1]; admixture of 25 mg/day imipramine hydrochloride and 275 mg docusate sodium, selective beta-blocker given as needed) | control of bladder functions (awake and sleeping) noted by patient ([2]; 50 mg/day imipramine hydrochloride and 300 mg docusate sodium, oral, after several days) | control of bladder functions (awake and sleeping) noted by patient ([2]; 50 mg/day imipramine hydrochloride and 350 mg docusate sodium, ingested separately, oral, after several days) | control of bladder functions (awake and sleeping) noted by patient ([2]; 75 mg/day imipramine hydrochloride (25 mg/3 times daily) and a stool softener, oral, after several days) | control of bladder functions (awake and sleeping) noted by patient ([2]; admixture of 25 mg/day imipramine hydrochloride and 275 mg docusate sodium, oral, after several days) | adverse side effects ([1]; 75 mg/day imipramine pamoate without stool softener, oral) | control of bladder functions noted by patient ([2]; 75 mg/day imipramine pamoate without stool softener, oral, after several days) | recurrence of symptoms after stopping daily dosages ([2]; after about three days without treatment)
1 | CN(C)CCCN1c2ccccc2CCc2ccccc21 [imipramine hydrochloride, Imipramine hydrochloride] | reduction or elimination of urinary incontinence for a significant portion of the members of the group | tolerates a dry mouth | tachycardia | full control of bladder functions | partial to full control of bladder functions | partial to full control of bladder functions | partial to full control of bladder functions | – | – | –
2 | CN(C)CCCN1c2ccccc2CCc2ccccc21.CN(C)CCCN1c2ccccc2CCc2ccccc21.O=C(O)c1cc2ccccc2c(Cc2c(O)c(C(=O)O)cc3ccccc23)c1O [imipramine pamoate, 5-[3-(dimethylamino)]propyl-10,11-dihydro-5H-dibenzazepine 4,4-methlyenebis-(3-hydroxy-2-napthoate)] | – | – | – | – | – | – | – | develops constipation | full control of bladder functions | bladder urgency and incontinence recur

— patent publication US20060148782A1, “Method and medicine for treating a mammal presenting urinary incontinence, urinary urgency, or both” (priority 2003, published 2006)
